Data: ChEMBL document CHEMBL1201862, “PubChem BioAssay data set” (2004)
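All cell lines were grown in 96-well plates and treated with compound for 48 hours. At the GI50, growth is halved.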 The source made the active and inactive calls. Rule as the data show it: active = GI50 up to about 1.1 µM and inactive = higher.

What was measured:
Assay in all cases: NCI-60 cell line screen, 48 h
MCF7 = system: MCF7
NCI-H23 = system: NCI-H23
RPMI-8226 = system: RPMI-8226
HCT-15 = system: HCT-15
U-251 = system: U-251
LOX IMVI = system: LOX IMVI
IGROV-1 = system: IGROV-1
K562 = system: K562
MDA-MB-435 = system: MDA-MB-435
DU-145 = system: DU-145
SK-MEL-2 = system: SK-MEL-2
NCI-H226 = system: NCI-H226
MDA-MB-231 = system: MDA-MB-231
Malme-3M = system: Malme-3M
RXF 393 = system: RXF 393
A498 = system: A498
SNB-19 = system: SNB-19
M14 = system: M14
UACC-62 = system: UACC-62
NCI-H460 = system: NCI-H460

Row | SMILES | GI50 (MCF7) | GI50 (NCI-H23) | GI50 (RPMI-8226) | GI50 (HCT-15) | GI50 (U-251) | GI50 (LOX IMVI) | GI50 (IGROV-1) | GI50 (K562) | GI50 (MDA-MB-435) | GI50 (DU-145) | GI50 (SK-MEL-2) | GI50 (NCI-H226) | GI50 (MDA-MB-231) | GI50 (Malme-3M) | GI50 (RXF 393) | GI50 (A498) | GI50 (SNB-19) | GI50 (M14) | GI50 (UACC-62) | GI50 (NCI-H460)
1 | C[N+](C)(C)CCN[N+]1(C)CCCc2ccccc21 (stereo not given) | > 100 µM (inactive) | > 100 µM (inactive) | 32.8 µM (inactive) | > 100 µM | 52.1 µM (inactive) | > 100 µM (inactive) | > 100 µM (inactive) | 39 µM (inactive) | > 100 µM (inactive) | > 100 µM (inactive) | > 100 µM (inactive) | 54.1 µM (inactive) | > 100 µM (inactive) | 23 µM (inactive) | 36 µM (inactive) | 17.7 µM (inactive) | > 100 µM (inactive) | > 100 µM (inactive) | > 100 µM (inactive) | > 100 µM (inactive)
2 | COC(=O)N/N=C(\C)C(CN1CCOCC1)C(c1ccccc1)c1cc2ccccc2oc1=O (stereo not given) | > 100 µM (inactive) | > 100 µM (inactive) | 25 µM (inactive) | > 100 µM | > 100 µM (inactive) | > 100 µM (inactive) | > 100 µM (inactive) | 70.5 µM (inactive) | > 100 µM (inactive) | > 100 µM (inactive) | > 100 µM (inactive) | > 100 µM (inactive) | > 100 µM (inactive) | 62.5 µM (inactive) | 72.1 µM (inactive) | > 100 µM (inactive) | > 100 µM (inactive) | > 100 µM (inactive) | > 100 µM (inactive) | > 100 µM (inactive)
3 | COc1cccc(OCC(=N/NC(=O)c2ccncc2)/N=C/c2cccnc2)c1 | > 100 µM (inactive) | > 100 µM (inactive) | 68.2 µM (inactive) | > 100 µM | > 100 µM (inactive) | > 100 µM (inactive) | > 100 µM (inactive) | > 100 µM (inactive) | > 100 µM (inactive) | > 100 µM (inactive) | > 100 µM (inactive) | > 100 µM (inactive) | > 100 µM (inactive) | > 100 µM (inactive) | > 100 µM (inactive) | > 100 µM (inactive) | > 100 µM (inactive) | > 100 µM (inactive) | > 100 µM (inactive) | > 100 µM (inactive)
4 | CCOC(=O)C(C(=O)c1ccccc1C(=O)OC)=P(c1ccccc1)(c1ccccc1)c1ccccc1 | > 10 µM (inactive) | > 10 µM (inactive) | > 10 µM (inactive) | > 10 µM | > 10 µM (inactive) | > 10 µM (inactive) | > 10 µM (inactive) | > 10 µM (inactive) | > 10 µM (inactive) | > 10 µM (inactive) | > 10 µM (inactive) | > 10 µM (inactive) | > 10 µM (inactive) | > 10 µM (inactive) | > 10 µM (inactive) | > 10 µM (inactive) | > 10 µM (inactive) | > 10 µM (inactive) | > 10 µM (inactive) | > 10 µM (inactive)
5 | O=C(OCCN=C1c2ccccc2CCc2ccccc21)c1cc([N+](=O)[O-])cc([N+](=O)[O-])c1 | > 31.6 µM (inactive) | > 31.6 µM (inactive) | 5.09 µM (inactive) | > 31.6 µM | > 100 µM (inactive) | > 31.6 µM (inactive) | 28.2 µM (inactive) | 20.7 µM (inactive) | > 31.6 µM (inactive) | > 31.6 µM (inactive) | > 31.6 µM (inactive) | > 31.6 µM (inactive) | > 31.6 µM (inactive) | > 31.6 µM (inactive) | > 31.6 µM (inactive) | > 10 µM (inactive) | > 31.6 µM (inactive) | > 31.6 µM (inactive) | > 31.6 µM (inactive) | > 31.6 µM (inactive)
6 | S=C(/N=c1\sc(NCc2ccccc2)nc2sc3c(c12)CCN(N1CCc2c(sc4nc(NCc5ccccc5)s/c(=N\C(=S)NCc5ccccc5)c24)C1)C3)NCc1ccccc1 | 15.8 µM (inactive) | 24.6 µM (inactive) | 14.6 µM (inactive) | 22.3 µM | 10.5 µM (inactive) | 15 µM (inactive) | 28 µM (inactive) | 17.4 µM (inactive) | 42.9 µM (inactive) | 45 µM (inactive) | 58.3 µM (inactive) | 49.9 µM (inactive) | 8.32 µM (inactive) | 70.3 µM (inactive) | 36.1 µM (inactive) | 52 µM (inactive) | 28.2 µM (inactive) | 42.9 µM (inactive) | 38.6 µM (inactive) | 54.8 µM (inactive)
7 | O=C1C(Nc2ccc(S(=O)(=O)Nc3cnc4ccccc4n3)cc2)=C/C(=N\c2ccc(S(=O)(=O)Nc3cnc4ccccc4n3)cc2)c2ccccc21 | 19.5 µM (inactive) | 18.7 µM (inactive) | 27.9 µM (inactive) | 18.4 µM | 19.1 µM (inactive) | 16.2 µM (inactive) | 19.1 µM (inactive) | 28.1 µM (inactive) | 18.9 µM (inactive) | 16.9 µM (inactive) | 17.9 µM (inactive) | 20.6 µM (inactive) | 23.1 µM (inactive) | 17.9 µM (inactive) | 17.7 µM (inactive) | 15.3 µM (inactive) | 15.3 µM (inactive) | 18.5 µM (inactive) | 18.2 µM (inactive) | 16.7 µM (inactive)
8 | Cc1c(C(=O)c2ccc(N)c3ccccc23)c2ccccc2n1CCN1CCOCC1 | 21.2 µM (inactive) | 29.7 µM (inactive) | 23.6 µM (inactive) | 21 µM | 2.77 µM (inactive) | 22.5 µM (inactive) | 27.1 µM (inactive) | 25.5 µM (inactive) | 2.02 µM (inactive) | 31.1 µM (inactive) | 18.6 µM (inactive) | 32.1 µM (inactive) | 12.6 µM (inactive) | 18.3 µM (inactive) | 24.2 µM (inactive) | 29.3 µM (inactive) | 21.5 µM (inactive) | 24.5 µM (inactive) | 16.4 µM (inactive) | 3.4 µM (inactive)
9 | COc1ccccc1C(=O)N(Cc1ccccc1)c1ccc(Cl)c(C(=O)OC(C)C)c1 | 47.8 µM (inactive) | 20.6 µM (inactive) | 5.69 µM (inactive) | 19.8 µM | 36.6 µM (inactive) | 28.2 µM (inactive) | 25.8 µM (inactive) | 6.89 µM (inactive) | 27 µM (inactive) | 32.4 µM (inactive) | 14.9 µM (inactive) | 13.6 µM (inactive) | 25.9 µM (inactive) | 21.9 µM (inactive) | 11.8 µM (inactive) | 37.3 µM (inactive) | 24.3 µM (inactive) | 20.7 µM (inactive) | 19.8 µM (inactive) | 21.4 µM (inactive)
10 | CC(C)NCCC(O)c1cc2ccccc2o1 (stereo not given) | > 100 µM (inactive) | > 100 µM (inactive) | > 100 µM (inactive) | > 100 µM | > 100 µM (inactive) | > 100 µM (inactive) | > 100 µM (inactive) | 1.06 µM (active) | > 100 µM (inactive) | > 100 µM (inactive) | > 100 µM (inactive) | > 100 µM (inactive) | > 100 µM (inactive) | > 100 µM (inactive) | > 100 µM (inactive) | > 100 µM (inactive) | > 100 µM (inactive) | > 100 µM (inactive) | > 100 µM (inactive) | > 100 µM (inactive)
11 | CS(=O)(=O)c1ccc(C2=C(c3ccccc3)C(=O)OC2)cc1 [ROFECOXIB] | > 100 µM (inactive) | > 100 µM (inactive) | > 100 µM (inactive) | > 100 µM | > 100 µM (inactive) | > 100 µM (inactive) | > 100 µM (inactive) | > 100 µM (inactive) | > 100 µM (inactive) | > 100 µM (inactive) | > 100 µM (inactive) | > 100 µM (inactive) | > 100 µM (inactive) | > 100 µM (inactive) | > 100 µM (inactive) | > 100 µM (inactive) | > 100 µM (inactive) | > 100 µM (inactive) | > 100 µM (inactive) | > 100 µM (inactive)
